According to paper doi:10.1101/2025.01.14.632949v1 (biorxiv, 2025):

What follows are compounds tested against Gal-3 (Homo sapiens, UniProt P17931) (assay: biolayer interferometry, steady-state analysis).
Sequence of Gal-3 (P17931 2-250): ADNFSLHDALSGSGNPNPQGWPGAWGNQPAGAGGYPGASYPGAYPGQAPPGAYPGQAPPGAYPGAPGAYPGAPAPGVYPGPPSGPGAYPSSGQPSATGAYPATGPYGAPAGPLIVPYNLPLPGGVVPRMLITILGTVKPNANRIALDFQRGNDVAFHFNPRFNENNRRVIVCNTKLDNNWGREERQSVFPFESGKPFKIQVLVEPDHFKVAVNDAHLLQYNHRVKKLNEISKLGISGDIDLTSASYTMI
Assay type: binding
`OC[C@H]1O[C@H](Oc2ccc(N=Nc3c(O)c(N=Nc4ccc(O[C@H]5O[C@H](CO)[C@H](O)[C@H](O)[C@H]5O)cc4)c(O)c(N=Nc4ccc(O[C@H]5O[C@H](CO)[C@H](O)[C@H](O)[C@H]5O)cc4)c3O)cc2)[C@H](O)[C@@H](O)[C@H]1O` [αGalY] gave a Kd of 3.31 µM. `OC[C@H]1O[C@@H](Oc2ccc(N=Nc3c(O)c(N=Nc4ccc(O[C@@H]5O[C@H](CO)[C@H](O)[C@H](O)[C@H]5O)cc4)c(O)c(N=Nc4ccc(O[C@@H]5O[C@H](CO)[C@H](O)[C@H](O)[C@H]5O)cc4)c3O)cc2)[C@H](O)[C@@H](O)[C@H]1O` [βGalY] was tested, and the Kd was 9.14 ± 3.42 µM. With `OC[C@H]1O[C@@H](O[C@H]2[C@H](O)[C@@H](O)[C@H](Oc3ccc(N=Nc4c(O)c(N=Nc5ccc(O[C@@H]6O[C@H](CO)[C@@H](O[C@@H]7O[C@H](CO)[C@H](O)[C@H](O)[C@H]7O)[C@H](O)[C@H]6O)cc5)c(O)c(N=Nc5ccc(O[C@@H]6O[C@H](CO)[C@@H](O[C@@H]7O[C@H](CO)[C@H](O)[C@H](O)[C@H]7O)[C@H](O)[C@H]6O)cc5)c4O)cc3)O[C@@H]2CO)[C@H](O)[C@@H](O)[C@H]1O` [βLacY] the Kd was 3.46 ± 1.75 µM.
